# Assay results: patent publication US20250206721A1, “Prostaglandin Receptor EP2 Antagonists, Derivatives, and Uses Related Thereto” (Emory University, priority 2019, published 2025)
# Tests used:
# [1] = Kinetic aqueous solubility in PBS by nephelometry; conditions: for Aqueous Solubility: PBS buffer (pH 7.4) with 1% DMSO, nephelometry
# human EP2 receptor = target: T1, human EP2 receptor (Homo sapiens, UniProt P43116); test: Cell-based cAMP TR-FRET assay, Schild KB on EP2; conditions: for EP2 KB / Kb: Schild KB, agonist PGE2, antagonist concentration 1 μM, C6G cells expressing human EP2
# T1 construct: expressed in transfected cells
# T1 sequence (P43116 whole entry): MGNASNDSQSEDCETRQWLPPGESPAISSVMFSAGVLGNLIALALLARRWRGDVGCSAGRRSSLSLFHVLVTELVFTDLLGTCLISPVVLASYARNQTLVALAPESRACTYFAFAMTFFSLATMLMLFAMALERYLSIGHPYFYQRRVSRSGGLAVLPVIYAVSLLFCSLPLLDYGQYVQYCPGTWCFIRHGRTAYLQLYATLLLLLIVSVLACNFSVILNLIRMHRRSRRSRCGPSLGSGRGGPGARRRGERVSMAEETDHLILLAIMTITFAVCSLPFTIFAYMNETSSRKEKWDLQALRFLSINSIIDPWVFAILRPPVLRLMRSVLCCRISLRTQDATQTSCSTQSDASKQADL
Structure (SMILES),Aqueous Solubility [1] [µM],other results
"Cc1[nH]c2ccccc2c1CCNC(=O)c1cnc(Nc2cc(C(C)(C)C)ccn2)nc1 [Compound 20d, 2-((4-(tert-Butyl)pyridin-2-yl)amino)-N-(2-(2-methyl-1H-indol-3-yl)ethyl)pyrimidine-5-carboxamide]",5,
"Cc1[nH]c2ccccc2c1CCNC(=O)c1cnc(Nc2cccc(O)n2)nc1 [Compound 20i, 2-((6-Hydroxypyridin-2-yl)amino)-N-(2-(2-methyl-1H-indol-3-yl)ethyl)pyrimidine-5-carboxamide]",10,
"Cc1cc(C)nc(Nc2ncc(C(=O)NCC(=O)c3c(C)[nH]c4ccccc34)cn2)c1 [Compound 24h, 2-((4,6-Dimethylpyridin-2-yl)amino)-N-(2-(2-methyl-1H-indol-3-yl)-2-oxoethyl)pyrimidine-5-carboxamide]",,EP2 KB (human EP2 receptor): eliminated the potency
"CC(=O)c1ccc(Nc2ncc(C(=O)NCCc3c(C)[nH]c4ccccc34)cn2)nc1 [Compound 20l, 2-((5-Acetylpyridin-2-yl)amino)-N-(2-(2-methyl-1H-indol-3-yl)ethyl)pyrimidine-5-carboxamide]",,Kb (human EP2 receptor): 166 nM; fold reduced EP2 potency in comparison to 20b (human EP2 receptor; comparator 20b): 20 fold
"COc1ccccc1-c1ccc(C(=O)NCCc2c(C)[nH]c3ccccc23)cc1 [Compound 14c, 2′-Methoxy-N-(2-(2-methyl-1H-indol-3-yl)ethyl)-[1,1′-biphenyl]-4-carboxamide]",5,
"Cc1[nH]c2ccccc2c1CCNC(=O)c1ccc(N2CCOCC2)nc1 [Compound 2b, N-(2-(2-Methyl-1H-indol-3-yl)ethyl)-6-morpholinonicotinamide]",206,Kb (human EP2 receptor): 118 nM; fold less EP2 potency in comparison to 2a (human EP2 receptor; comparator 2a): 4 fold; fold increased aqueous solubility ([1]; comparator 2a): 3 fold
"Cc1[nH]c2ccccc2c1CCNC(=O)c1cnc(Nc2cccc(C#N)n2)nc1 [Compound 20g, 2-((6-Cyanopyridin-2-yl)amino)-N-(2-(2-methyl-1H-indol-3-yl)ethyl)pyrimidine-5-carboxamide]",13,
"CC(=O)c1cccc(Nc2ncc(C(=O)NCCc3c(C)[nH]c4ccccc34)cn2)n1 [Compound 20j, 2-((6-Acetylpyridin-2-yl)amino)-N-(2-(2-methyl-1H-indol-3-yl)ethyl)pyrimidine-5-carboxamide]",5,

# The next lines start with results.
Aqueous Solubility [1] [µM],Structure (SMILES),other results
20,"COc1ccc2[nH]c(C)c(CCNC(=O)c3cnc(Nc4cc(C)cc(C)n4)nc3)c2c1 [Compound 24e, 2-((4,6-Dimethylpyridin-2-yl)amino)-N-(2-(5-methoxy-2-methyl-1H-indol-3-yl)ethyl)pyrimidine-5-carboxamide]",
25,"Cc1[nH]c2ccccc2c1CCNC(=O)c1cnc(Nc2cccc(C(C)(C)C)n2)nc1 [Compound 20n, 2-((6-(tert-Butyl)pyridin-2-yl)amino)-N-(2-(2-methyl-1H-indol-3-yl)ethyl)pyrimidine-5-carboxamide]",
6,"CCC(C)(O)c1cccc(Nc2ncc(C(=O)NCCc3c(C)[nH]c4ccccc34)cn2)n1 (stereo not drawn) [Compound 20m, 2-((6-(2-Hydroxybutan-2-yl)pyridin-2-yl)amino)-N-(2-(2-methyl-1H-indol-3-yl)ethyl) pyrimidine-5-carboxamide]",
38,"Cc1[nH]c2ccccc2c1CCNC(=O)c1cnc(Nc2ccncc2)nc1 [Compound 20p, N-(2-(2-Methyl-1H-indol-3-yl)ethyl)-2-(pyridin-4-ylamino)pyrimidine-5-carboxamide]",EP2 KB (human EP2 receptor): complete loss of potency
70,"Cc1cc(C)nc(Nc2ncc(C(=O)NCCc3c(C)nn4ccccc34)cn2)c1 [Compound 24g, 2-((4,6-Dimethylpyridin-2-yl)amino)-N-(2-(2-methylpyrazolo[1,5-a]pyridin-3-yl)ethyl)pyrimidi-ne-5-carboxamide]",
